The nature of data set [1]: In vivo rat clearance assay (i.v.). Conditions: plasma, iv, i.v. via jugular vein. The protocol:
Cannulations of the jugular and carotid vessels of rats under anesthesia are performed one day prior to the pharmacokinetic study. M. J. Free, R. A. Jaffee; ‘Cannulation techniques for the collection blood and other bodily fluids’; in: Animal Models; p. 480-495; N. J. Alexander, Ed.; Academic Press; (1978). Drug (10 mg/mL) is administered via the jugular vein in a vehicle usually consisting of: propylene glycol/saline, containing 100 mM sodium bicarbonate in a 1:1 ratio. Animals are dosed with 10-20 mg drug/kg and blood samples are drawn at 0, 2, 5, 7, 10, 15, 20, 30, 60, and 90 minutes from an indwelling carotid catheter. The blood is centrifuged to plasma and stored at −20° C. until analysis. Pharmacokinetic analysis of data is performed by non-linear regression using standard software such as RStrip (MicroMath Software, UT) and/or Pcnonlin (SCI Software, NC) to obtain clearance values.
Rat plasma is extracted with an equal volume of acetonitrile (containing 0.1% TFA). Samples are then centrifuged at approximately 1,000×g and the supernatant analyzed by gradient HPLC. A typical assay procedure is described below.
200 μL of plasma is precipitated with 200 μL of 0.1% trifluoroacetic acid (TFA) in acetonitrile and 10 μL of a 50% aqueous zinc chloride solution, vortexed then centrifuged at ^˜1000×g and the supernatant collected and analyzed by HPLC.
A standard curve is run at 20, 10, 5, 2 and 1 μg/mL concentrations.

Data set [2] deals with T1, Caspase-4 (Homo sapiens, UniProt P49662).
T1 sequence (P49662 81-270 limits assumed): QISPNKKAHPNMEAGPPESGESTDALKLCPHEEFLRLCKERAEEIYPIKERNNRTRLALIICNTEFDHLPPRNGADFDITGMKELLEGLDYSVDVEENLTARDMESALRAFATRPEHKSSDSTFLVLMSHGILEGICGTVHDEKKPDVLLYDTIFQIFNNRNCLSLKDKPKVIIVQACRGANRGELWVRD
T1 sequence (P49662 290-377 limits assumed): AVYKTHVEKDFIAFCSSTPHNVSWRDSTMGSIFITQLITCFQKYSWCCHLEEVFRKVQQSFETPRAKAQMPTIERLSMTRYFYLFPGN
The data set can be described thus: Caspase-4 enzyme inhibition (Ki). It is filed as biochemical. The conditions noted are these: substrate Ac-WEHD-AMC 20 μM, 37° C. How it is done:
Ki values for test compounds with the various caspases were obtained by the method of Margolin et al. (J. Biol. Chem., 272 pp. 7223-7228 (1997)). Assays were performed in 10 mM Tris (Sigma Corp, St Louis Mo.) pH 7.5, 1 mM Dithiothreitol (DTT, Research Organic INC, Cleveland, Ohio) and 0.1% CHAPS (Pierce, Rockford Ill.) at 37° C. For caspase-3, a solution of 8% glycerol was added to the assay buffer to improve enzyme stability. A 65 μL aliquot of the assay buffer and 5 μL aliquot of the appropriate dilutions of inhibitor in DMSO where pipetted into a 96 well plate, treated with 10 μL of caspase, then diluted in assay buffer (0.5-40 nM active protein by active site titration). A control containing DMSO but no compound was included for each determination. The plates were then incubated for 15 minutes at 37° C., before addition of the appropriate substrate (20 μL, final concentration 1-4×KM, final assay volume 100 μL) to initiate the reaction. Reaction rates were measured at 37° C. either by following the time dependant increase in absorbance at 405 nm (for the pNA substrates) or in fluorescence (Ex 390, Em 460) (for the AMC substrates). The rates obtained were plotted against inhibitor concentration and the data fit to the Morrison tight-binding equation for competitive inhibitors (Morrison, J. F., Biochem. Biophys. Acta, 185 pp. 269-286 (1969)). […]

Each structure is given as a SMILES string.

For `CC[C@H](NC(=O)c1cc(Cl)c(O)c(Cl)c1)C(=O)N1CCC[C@H]1C(=O)N[C@H](C=O)CC(=O)O` [Example 20m], the clearance – broadly, the rate of elimination divided by the concentration – in data set [1] was less than 50 mL/min/kg.

In data set [1], `COc1c(C)cc(C(=O)N[C@@H](C)C(=O)N2CCC[C@H]2C(=O)N[C@H](C=O)CC(=O)O)cc1C` [Example 122d, 3-({1-[2-(4-Methoxy-3,5-dimethyl-benzoylamino)-propionyl]-pyrrolidine-2-carbonyl}-amino)-4-oxo-butyric acid] gave a clearance of 50 to 80 mL/min/kg. The Ki (usually a dissociation constant, usually derived from enzyme kinetics or from competition with a known ligand) in data set [2] is less than 10 nM.

Consider `CC(=O)Nc1ccc(C(=O)N[C@@H](C)C(=O)N2CCC[C@H]2C(=O)N[C@H](C=O)CC(=O)O)cc1Cl` [Example 122f, 3-({1-[2-(4-Acetylamino-3-chloro-benzoylamino)-propionyl]-pyrrolidine-2-carbonyl}-amino)-4-oxo-butyric acid], for which the clearance in data set [1] is less than 50 mL/min/kg.

In the case of `CS(=O)(=O)CC[C@H](NC(=O)c1nccc2ccccc12)C(=O)N1CCC[C@H]1C(=O)N[C@H](C=O)CC(=O)O` [Example 20h], the clearance in data set [1] was 50 to 80 mL/min/kg.

As for `COc1ccc(C(=O)N[C@@H](C)C(=O)N2CCC[C@H]2C(=O)N[C@H](C=O)CC(=O)O)cc1` [Example 7f], the clearance in data set [1] lay in the range of 50 to 80 mL/min/kg.

`COc1c(Cl)cc(C(=O)N[C@@H](C)C(=O)N2CCC[C@H]2C(=O)N[C@H](C=O)CC(=O)O)cc1Cl` [Example 122c, 3-({1-[2-(3,5-Dichloro-4-methoxy-benzoylamino)-propionyl]-pyrrolidine-2-carbonyl}-amino)-4-oxo-butyric acid] registered a clearance in data set [1] greater than 80 mL/min/kg.

Consider `Cc1cc(C(=O)N[C@H](C(=O)N2CCCC2C(=O)N[C@H](C=O)CC(=O)O)C(C)C)cc(C)c1O` (stereo partly drawn) [Example 65, 3-({l-[2-(4-Hydroxy-3,5-dimethyl-benzoyiamino)-3-methyl-butyryl]-pyrrolidine-2-carbonyl}-amino)-4-oxo-butyric acid], for which the clearance in data set [1] was greater than 80 mL/min/kg.

`C[C@H](NC(=O)c1nccc2ccccc12)C(=O)N1CCC[C@H]1C(=O)N[C@H](C=O)CC(=O)O` [Example 7d] returned a clearance in data set [1] of less than 50 mL/min/kg.

`C[C@H](NC(=O)c1ccc(N)c(Cl)c1)C(=O)N1CCC[C@H]1C(=O)N[C@H](C=O)CC(=O)O` [Example 122b, 3-({-[2-(4-Amino-3-chloro-benzoylamino)-propionyl]-pyrrolidine-2-carbonyl}-amino)-4-oxo-butyric acid]: the clearance in data set [1] fell in the range of 50 to 80 mL/min/kg. The compound further gave a Ki in data set [2] of less than 10 nM.

The values above are taken from patent US20030232986A1, “Inhibitors of caspases” (Vertex Pharmaceuticals Incorporated, priority 1998, published 2003).
